Results on eleven molecules are retold here after patent publication US9938281B2 (Merck Sharp & Dohme Corp., priority 2012, dated 2018).

In one assay the target is T1, PI3K-delta (Homo sapiens, UniProt O00329).
T1 construct: purchased Upstate; Millipore 14-604
The assay is described as follows: HTRF PI3K biochemical assay, delta isoform. Conditions: form screened (neutral or TFA salt) given, read-out: PI3Kdelta IC50.

The target in the next assay is T2, PI3K-alpha (Homo sapiens, UniProt P42336).
T2 construct: purchased Upstate; Millipore 14-602
T2 sequence (P42336 whole entry): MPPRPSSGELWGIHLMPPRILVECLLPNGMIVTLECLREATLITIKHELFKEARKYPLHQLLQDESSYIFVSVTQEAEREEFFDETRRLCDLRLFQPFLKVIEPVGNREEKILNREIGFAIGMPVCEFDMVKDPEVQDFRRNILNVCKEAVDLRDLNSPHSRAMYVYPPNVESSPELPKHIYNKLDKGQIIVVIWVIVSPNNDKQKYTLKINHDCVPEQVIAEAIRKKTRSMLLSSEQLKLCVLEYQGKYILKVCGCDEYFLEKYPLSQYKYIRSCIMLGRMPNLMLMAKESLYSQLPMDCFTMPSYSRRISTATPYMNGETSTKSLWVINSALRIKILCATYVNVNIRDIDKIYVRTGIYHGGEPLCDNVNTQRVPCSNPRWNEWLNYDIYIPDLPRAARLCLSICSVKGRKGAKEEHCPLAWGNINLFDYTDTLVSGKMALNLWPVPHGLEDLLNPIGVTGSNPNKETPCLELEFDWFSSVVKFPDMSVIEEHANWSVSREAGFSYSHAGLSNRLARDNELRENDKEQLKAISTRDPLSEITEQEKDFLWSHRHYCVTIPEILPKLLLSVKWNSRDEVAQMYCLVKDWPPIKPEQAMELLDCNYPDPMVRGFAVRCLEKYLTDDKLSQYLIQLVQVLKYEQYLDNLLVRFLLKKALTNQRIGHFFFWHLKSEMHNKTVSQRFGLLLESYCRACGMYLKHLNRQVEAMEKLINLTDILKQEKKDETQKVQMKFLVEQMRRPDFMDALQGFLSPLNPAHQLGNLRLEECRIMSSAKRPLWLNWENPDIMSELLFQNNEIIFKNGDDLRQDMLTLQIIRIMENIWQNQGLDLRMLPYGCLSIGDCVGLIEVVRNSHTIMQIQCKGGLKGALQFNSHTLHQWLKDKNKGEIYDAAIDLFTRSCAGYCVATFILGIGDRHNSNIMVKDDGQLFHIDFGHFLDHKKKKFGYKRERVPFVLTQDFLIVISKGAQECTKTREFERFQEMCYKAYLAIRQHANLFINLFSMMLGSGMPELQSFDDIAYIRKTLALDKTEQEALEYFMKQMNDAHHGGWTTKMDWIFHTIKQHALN
T2 sequence (P27986 whole entry partner): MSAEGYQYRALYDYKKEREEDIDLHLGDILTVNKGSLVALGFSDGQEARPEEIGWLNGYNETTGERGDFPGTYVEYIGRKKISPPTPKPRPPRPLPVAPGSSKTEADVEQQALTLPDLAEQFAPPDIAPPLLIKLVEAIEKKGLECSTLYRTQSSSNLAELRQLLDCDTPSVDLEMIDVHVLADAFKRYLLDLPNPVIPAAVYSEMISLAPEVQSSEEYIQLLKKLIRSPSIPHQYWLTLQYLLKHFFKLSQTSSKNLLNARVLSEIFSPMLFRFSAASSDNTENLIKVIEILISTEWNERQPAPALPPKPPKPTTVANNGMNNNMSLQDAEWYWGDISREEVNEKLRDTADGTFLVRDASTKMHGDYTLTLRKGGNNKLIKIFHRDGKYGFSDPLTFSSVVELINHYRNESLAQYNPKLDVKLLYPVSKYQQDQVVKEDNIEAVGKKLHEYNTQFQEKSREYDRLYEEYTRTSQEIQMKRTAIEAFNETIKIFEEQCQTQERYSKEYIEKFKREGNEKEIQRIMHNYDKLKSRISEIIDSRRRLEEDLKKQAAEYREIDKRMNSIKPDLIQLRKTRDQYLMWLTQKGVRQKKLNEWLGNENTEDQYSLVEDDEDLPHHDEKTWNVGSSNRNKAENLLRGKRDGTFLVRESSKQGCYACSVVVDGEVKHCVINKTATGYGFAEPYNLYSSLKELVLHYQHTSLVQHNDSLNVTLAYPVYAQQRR
Kind of assay: HTRF PI3K biochemical assay, alpha isoform. The note with it: ratio PI3K-alpha IC50 value / PI3K-delta IC50 value. On the technique in general: In TR-FRET formats the signal depends on donor and acceptor labels being close together.

Some results are limits rather than exact numbers.

T1 sequence (O00329 whole entry): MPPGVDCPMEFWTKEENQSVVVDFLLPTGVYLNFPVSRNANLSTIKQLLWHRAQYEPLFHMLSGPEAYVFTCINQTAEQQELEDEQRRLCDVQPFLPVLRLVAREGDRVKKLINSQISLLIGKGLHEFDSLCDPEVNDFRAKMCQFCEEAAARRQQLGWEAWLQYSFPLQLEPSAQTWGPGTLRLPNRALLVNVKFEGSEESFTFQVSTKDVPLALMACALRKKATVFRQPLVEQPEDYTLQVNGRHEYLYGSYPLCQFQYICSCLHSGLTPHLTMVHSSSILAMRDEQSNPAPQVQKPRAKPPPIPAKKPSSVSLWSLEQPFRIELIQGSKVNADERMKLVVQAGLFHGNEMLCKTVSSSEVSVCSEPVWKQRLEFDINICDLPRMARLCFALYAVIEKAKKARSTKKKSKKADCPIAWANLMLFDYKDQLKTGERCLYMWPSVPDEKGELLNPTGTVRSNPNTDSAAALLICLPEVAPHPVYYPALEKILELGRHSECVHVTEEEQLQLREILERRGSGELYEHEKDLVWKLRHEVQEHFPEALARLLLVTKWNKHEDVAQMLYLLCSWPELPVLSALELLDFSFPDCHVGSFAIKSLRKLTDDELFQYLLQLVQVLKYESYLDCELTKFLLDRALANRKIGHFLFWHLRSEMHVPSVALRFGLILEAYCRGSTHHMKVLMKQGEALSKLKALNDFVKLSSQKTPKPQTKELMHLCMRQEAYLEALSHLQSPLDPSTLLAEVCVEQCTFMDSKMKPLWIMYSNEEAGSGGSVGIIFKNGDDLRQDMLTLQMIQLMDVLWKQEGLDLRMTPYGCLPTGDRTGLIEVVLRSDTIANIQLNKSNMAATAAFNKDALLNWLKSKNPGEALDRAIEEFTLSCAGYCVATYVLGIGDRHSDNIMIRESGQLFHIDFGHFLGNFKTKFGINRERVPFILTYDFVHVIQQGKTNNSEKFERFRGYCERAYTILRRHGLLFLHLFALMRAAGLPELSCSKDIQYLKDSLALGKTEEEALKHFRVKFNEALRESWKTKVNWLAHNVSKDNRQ
T1 sequence (P27986 whole entry partner): as the sequence (P27986 whole entry partner) above
Text for PI3K-alpha: The PI3-Kinase biochemical assays were developed to measure the intrinsic potency and compound dependent inhibition of the alpha, beta, delta, and gamma PI3K isoform enzymes. This assay was developed and further optimized from a kit produced by Upstate (Millipore catalog #33-047) and has been configured for HTS and SAR screening. Briefly, this procedure exploits the exquisite specificity and high affinity binding of enzyme reaction substrate phosphatidyl(3,4,5)triphosphate (PIP3) to the GRP1 pleckstrin homology (PH) domain to generate the signal. In the absence of PIP3, an HTRF (Homogeneous Time-Resolved Fluorescence energy transfer) complex is formed consisting of europium (Eu)-labeled anti-GST, GSTtagged GRP1-PH domain, biotin-PIP3 and streptavidin conjugated APC. The native PIP3 produced by PI3-Kinase activity disrupts in a competitive manner the biotin-PIP3 from the PH domain, resulting in the loss of energy transfer (HTRF complex) and a decrease in the signal. The format of this assay is the same for all 4 isoforms of PI3K; the differences lie in the concentration of enzyme used to achieve robust assay window. The alpha, beta, and delta assays are run at 0.5, 1, and 0.3 nM enzymes and the gamma assay is run at 5 nM enzyme. The ATP concentration is 100 uM in the alpha, beta, and delta assays and 50 uM ATP in the gamma assay. All reactions are run at 5 uM PIP2.
(§1) Compounds are serially diluted (3-fold in 100% DMSO) across a 384-well polypropylene source plated from column 3 to column 12 and column 13 to column 22, to yield 10 concentration dose response for each test compound. Columns 1, 2, 23 and 24 contain either only DMSO or pharmacological known control inhibitor.
(§2) The PI3-Kinase biochemical assay was optimized using the HTRF kit provided by Upstate (Millipore). The assay kit contains six reagents: 1) 4× Reaction Buffer; 2) native PIP2 (substrate); 3) Stop (EDTA); 4) Detection Mix A (Streptavidin-APC); 5) Detection Mix B (Eu-labeled Anti-GST plus GST-tagged PH-domain); 6) Detection Mix C.
(§3) PI3Kinase Reaction Buffer is prepared by dilution the stock 1:4 with de-ionized water. […] Enzyme addition and compound pre-incubation are initiated by the addition of 1.25 ul of PI3K (at twice its final concentration) in the 1× reaction buffer to all wells using a BioRaptor. Plates are incubated at room temperature for 15 minutes. Reactions are initiated by addition of 1.25 ul of 2× substrate solution (PIP2 and ATP in 1× reaction buffer) using BioRaptor. Plates are incubated in humidified chamber at room temperature for one hour. Reactions are quenched by addition of 0.625 uL of stop solution to all wells using the BioRaptor. The quenched reactions are then processed to detect product formation by adding 0.625 uL of Detection Solution to all wells using the BioRaptor (Detection mix C, Detection Mix A, and Detection Mix B combined together in an 18:1:1 ratio prepared 2 hours prior to use).
(§4) The loss of the HTRF signal is due to the displacement of biotinylated-PIP3 from the PH domain by the PI3K-dependent conversion of PIP2 to PIP3. This loss of signal is nonlinear with respect to both increasing product and time. This non-linear detection will impact accuracy of IC50 calculations; therefore, there is a need for a correction factor to obtain more accurate IC50 values. This correction is derived from a PIP3 standard curve run in a separate assay plate. All data were calculated using the ratio of acceptor (APC) to donor (Europium) fluorescence in each well of the assay plate. […] An IC50 was then calculated fitting the % inhibition data to the equation: % inhibition=min+(Max−min)/1+([inhibitor]/IC50)^n) where min is the % inhibition with inhibitor, max is the signal in DMSO control, and n is the Hill slope.
The determination of relative selectivity for a given compound is defined as the relative ratio of the (PI3K-alphalC50 value/PI3K-delta IC50 value).
Text for PI3K-delta: HTRF PI3K Biochemical Assay to Measure Intrinsic Potency of Compound Inhibitors
This assay was developed and further optimized from a kit produced by Upstate (Millipore catalog #33-047) and has been configured for HTS and SAR screening. Briefly, this procedure exploits the exquisite specificity and high affinity binding of enzyme reaction substrate phosphatidyl(3,4,5)triphosphate (PIP3) to the GRP1 pleckstrin homology (PH) domain to generate the signal. In the absence of PIP3, an HTRF (Homogeneous Time-Resolved Fluorescence energy transfer) complex is formed consisting of europium (Eu)-labeled anti-GST, GSTtagged GRP1-PH domain, biotin-PIP3 and streptavidin conjugated APC. The native PIP3 produced by PI3-Kinase activity disrupts in a competitive manner the biotin-PIP3 from the PH domain, resulting in the loss of energy transfer (HTRF complex) and a decrease in the signal. The format of this assay is the same for all 4 isoforms of PI3K; the differences lie in the concentration of enzyme used to achieve robust assay window. The alpha, beta, and delta assays are run at 0.5, 1, and 0.3 nM enzymes and the gamma assay is run at 5 nM enzyme. The ATP concentration is 100 uM in the alpha, beta, and delta assays and 50 uM ATP in the gamma assay. All reactions are run at 5 uM PIP2.
as §1, §2, §3, §4

As for `CCn1c(-c2cnc(CO)nc2)nc2c(N[C@H]3CCN(C(=O)C4CC4)C3)ncnc21` [Compound 3-39, [5-(6-{[(3S)-1-(cyclopropylcarbonyl)pyrrolidin-3-yl]amino}-9-ethyl-9H-purin-8-yl)pyrimidin-2-yl]methanol], the IC50 at PI3K-delta worked out at 3.4 nM. Also, the “Selectivity versus PI3Kalpha” value at PI3K-alpha was greater than 10.

Take `CCn1c(-c2cnc(C)nc2)nc2c(N[C@H]3C[C@H](CO)N(C(=O)OC(C)(C)C)C3)ncnc21` [Compound 1-20, tert-butyl (2R,4S)-4-{[9-ethyl-8-(2-methylpyrimidin-5-yl)-9H-purin-6-yl]amino}-2-(hydroxymethyl)pyrrolidine-1-carboxylate]: the IC50 at PI3K-delta amounted to 12 nM. Further, the “Selectivity versus PI3Kalpha” value on PI3K-alpha was greater than 10.

Consider `CCn1c(C(F)F)nc2c(N[C@H]3CCN(C(=O)C4CC4)C3)ncnc21` [Compound 7-14, N-[(3S)-1-(cyclopropylcarbonyl)pyrrolidin-3-yl]-8-(difluoromethyl)-9-ethyl-9H-purin-6-amine], for which the IC50 on PI3K-delta came out at 22 nM. Further, the “Selectivity versus PI3Kalpha” value on PI3K-alpha is greater than 10.

As to `CCn1c(Oc2ccc(OC)c(F)c2)nc2c(N[C@H]3CCN(C(=O)C4CC4)C3)ncnc21` [Compound 8-6, N-[(3S)-1-(cyclopropylcarbonyl)pyrrolidin-3-yl]-9-ethyl-8-(3-fluoro-4-methoxyphenoxy)-9H-purin-6-amine], the IC50 at PI3K-delta was found to be 8.2 nM. In addition, the “Selectivity versus PI3Kalpha” value at PI3K-alpha is given as greater than 10.

On to `CCn1c(-c2cnc(C)nc2)nc2c(N[C@H]3CCCN(C(=O)C4CC4)C3)ncnc21` [Compound 2-28, N-[(3S)-1-(cyclopropylcarbonyl)piperidin-3-yl]-9-ethyl-8-(2-methylpyrimn-5-yl)-9H-purin-6-amine], for which the IC50 on PI3K-delta was 15 nM. Moreover, the “Selectivity versus PI3Kalpha” value on PI3K-alpha is reported as greater than 10.

In the case of `CCn1c(-c2cnc(C)nc2)nc2c(N[C@H]3CCN(C(=O)C4(NC)CC4)C3)ncnc21` [Compound 2-82, 9-ethyl-N-[(3S)-1-{[1-(methylamino)cyclopropyl]car-bonyl}pyrrolidin-3-yl]-8-(2-methylpyrimidin-5-yl)-9H-purin-6-amine], the IC50 at PI3K-delta was 21 nM. Also, the “Selectivity versus PI3Kalpha” value on PI3K-alpha is greater than 10.

Turning to `CCn1c(-c2cnc(C)nc2)nc2c(N[C@H]3CCN(C(=O)NCC(F)(F)F)C3)ncnc21` [Compound 12-8, (3S)-3-{[9-ethyl-8-(2-methylpyrimidin-5-yl)-9H-purin-6-yl]amino}-N-(2,2,2-trifluoroethyl)pyrrolidine-1-carboxamide], the IC50 on PI3K-delta was found to be 9.7 nM. Further, at PI3K-alpha, the “Selectivity versus PI3Kalpha” value is greater than 10.

Consider `CCn1c(-c2ccc(OC)nc2)nc2c(N[C@H]3CCN(C(=O)OC(C)(C)C)C3)ncnc21` [Compound 1-23, tert-butyl (3S)-3-{[9-ethyl-8-(6-methoxypyridin-3-yl)-9H-purin-6-yl]amino}pyrrolidine-1-carboxylate], for which the IC50 on PI3K-delta was less than 1 nM. For the same molecule, the “Selectivity versus PI3Kalpha” value at PI3K-alpha is recorded as greater than 10.

With `CCC(=O)N1CC[C@@H](Nc2ncnc3c2nc(-c2cnn(CC)c2C)n3C)C1` [Compound 2-1, 8-(1-ethyl-5-methyl-1H-pyrazol-4-yl)-9-methyl-N-[(3R)-1-propanoylpyrrolidin-3-yl]-9H-purin-6-amine], the IC50 at PI3K-delta came to 32 nM. Also, the “Selectivity versus PI3Kalpha” value on PI3K-alpha is on record as greater than 10.

`CCn1c(-c2cnc(C)nc2)nc2c(N[C@H]3CC[C@@H](C(=O)N(C)C4CC4)C3)ncnc21` [Compound 5-5, (1R,3S)-N-cyclopropyl-3-{[9-ethyl-8-(2-methylpyrimidin-5-yl)-9H-purin-6-yl]amino}-N-methylcyclopentanecarboxamide]: the IC50 on PI3K-delta was found to be 3.7 nM. Moreover, on PI3K-alpha, the “Selectivity versus PI3Kalpha” value is recorded as greater than 10.

Take `CCn1c(-c2cnc(C)nc2)nc2c(N[C@H]3CCN(C(=O)CCNC)C3)ncnc21` [Compound 2-86, 9-ethyl-N-{(3S)-1-[3-(methylamino)propanoyl]pyrroli-din-3-yl}-8-(2-methylpyrimidin-5-yl)-9H-purin-6-amine]: the IC50 at PI3K-delta was 46 nM. The “Selectivity versus PI3Kalpha” value at PI3K-alpha was greater than 10.
